Experimental data as given in US20140235676A1, “RXR AGONIST COMPOUNDS AND METHODS” (Case Western Reserve University, priority 2011, published 2014).

Key:
primary microglia = experiment: Intracellular Aβ degradation by primary microglia; format: cell-based, murine
From the text: FIG. 5 illustrates graphs showing RXR agonists stimulate Aβ degradation.
Given the ability of RXR activation to drive LXR target gene expression, we predicted that agonist treatment should promote the proteolytic degradation of Aβ by microglia. […] Aβ uptake was unaffected by either drug treatment.

microglia = experiment: Inhibition of RXR mediated intracellular Aβ degradation by PPARγ or LXR inhibitors, microglia; format: cell-based; conditions: inhibitor pretreatment 1.5 hrs, Bexarotene 24 hours, 2 ug/mL soluble Aβ 18 hours
From the text: (§1) FIG. 14 illustrates graphs showing RXR mediated intracellular Aβ degradation is prevented by inhibiting PPARγ or LXR.
(§2) To determine which heterodimer partners are involved in RXR activation driven Aβ intracellular degradation, we inhibited PPARγ and LXR by competitive inhibitors, TO and 22-s-Hydroxycholesterol, respectively. Aβ degradation mediated by either microglia (A) or astrocytes (B) is inhibited with either inhibitor to PPAR or LXR. Additionally, a co-treatment with both inhibitors reduces Aβ degradation further (FIG. 14).

astrocytes = experiment: Inhibition of RXR mediated intracellular Aβ degradation by PPARγ or LXR inhibitors, astrocytes; format: cell-based; conditions: inhibitor pretreatment 1.5 hrs, Bexarotene 24 hours, 2 ug/mL soluble Aβ 18 hours
From the text: as §1, §2

[1] = extended periods in humans; cited from earlier work
[2] = test system: ApoE knock out astrocytes; experiment: Intracellular Aβ degradation in ApoE knock out astrocytes; format: cell-based, murine; conditions: without ApoE
ApoE knock out microglia = experiment: Intracellular Aβ degradation in ApoE knock out microglia; format: cell-based, murine; conditions: without ApoE
[3] = therapeutic doses, FDA alert May 21, 2007; cited from earlier work

SMILES: CC1=C(/C=C/C(C)=C\C=C\C(C)=C\C(=O)O)C(C)(C)CCC1 [9cisRA]
- Aβ uptake (primary microglia): unaffected
- intracellular Aβ levels (primary microglia; drug 24 hours then 18 hours with 2 μg/mL soluble Aβ): dose-dependent reduction

SMILES: CC(C)CC[C@H](O)[C@@H](C)[C@H]1CC[C@H]2[C@@H]3CC=C4C[C@@H](O)CC[C@]4(C)[C@H]3CC[C@]12C [22-s-Hydroxycholesterol]
- Bexarotene driven intracellular Aβ degradation (microglia): inhibited
- Bexarotene driven intracellular Aβ degradation (astrocytes): inhibited

SMILES: C=C(c1ccc(C(=O)O)cc1)c1cc2c(cc1C)C(C)(C)CCC2(C)C [Bexarotene]
- clinical safety profile [1]: good safety profile
- intracellular Aβ degradation [2]: no effect
- intracellular Aβ degradation (ApoE knock out microglia): no effect

SMILES: CN(CCOc1ccc(CC2SC(=O)NC2=O)cc1)c1ccccn1 (stereo not drawn) [rosiglitazone, 5-[4-[2-(N-methyl-N-(2-pyridyl)amino]ethoxy]benzyl]thiazolidine-2,4-dione]
- risk of death from all cardiovascular diseases [3]: even higher risk of death from all cardiovascular diseases
- risk of heart attack [3]: significantly increased risk of heart attack
